Source: the PolyMetriX glass transition set
± gives the standard deviation of the reports.

| glass transition temperature [°C] | Compound |
| --- | --- |
| 19.00 | *CC(O)COC(=O)CCCCC(=O)OCC(O)COc1ccc(O*)cc1 (repeat unit) |
| 44.00 | *Oc1ccc(CC(NC(=O)CCc2ccc(OC(=O)CCCCCCCCC(*)=O)cc2)C(=O)OCC)cc1 (repeat unit) |
| 46.00 | *CCCCCCCCCCNC(=O)CCCCCCCCCCCCCCCCC(=O)N* (repeat unit) |
| 203.50 | *NNC(=O)c1ccc(C(*)=O)cc1OCCCCCCCC (repeat unit) |
| 77.00 | */C=C/C1CC(*)C(F)(F)C1(F)OC(F)(F)C(F)(F)C(F)(F)F (repeat unit) |
| 208.00 | *CC1CCC(CNC(=O)c2cccc(C(=O)N*)c2)CC1 (repeat unit) |
| 295.00 | *OC(=O)Oc1ccc2c(c1)Oc1cc(*)ccc1C21c2ccccc2-c2ccccc21 (repeat unit) |
| 173.00 | *CCC(C)C(C)CCNC(=O)c1cc(C(=O)N*)cc(C(C)(C)C)c1 (repeat unit) |
| 38.10 | */C=C/c1cccc(/C=C/[Si](C)(C)c2ccc([Si](*)(C)C)cc2)c1 (repeat unit) |
| 92.00 | *CCCCCCCCCCCCNC(=O)c1ccc(C(=O)N*)c(Sc2ccccc2)c1 (repeat unit) |
| 165.00 | *CCOCCOCCOc1ccc(C(=O)Nc2cc(NC(=O)c3ccc(O*)cc3)cc(-c3nc4ccccc4[nH]3)c2)cc1 (repeat unit) |
| 250.00 | *c1cc(N2C(=O)c3ccc(Oc4cccc5c(Oc6ccc7c(c6)C(=O)N(*)C7=O)cccc45)cc3C2=O)cc(C(F)(F)F)c1 (repeat unit) |
| 98.00 | *OC(C)COC(=O)c1ccc(C(*)=O)cc1 (repeat unit) |
| -2.00 | *CC(C)(COC(=O)O*)C(=O)OCc1ccccc1 (repeat unit) |
| 211.00 | *c1ccc(Oc2ccc(-c3ccc(Oc4ccc(N5C(=O)c6ccc(Oc7ccc(Oc8ccc(Oc9ccc%10c(c9)C(=O)N(*)C%10=O)cc8)cc7)cc6C5=O)cc4)cc3)cc2)cc1 (repeat unit) |
| 235.00 | *Nc1ccccc1CCc1ccccc1NC(=O)Nc1ccc(CCc2ccc(NC(*)=O)cc2)cc1 (repeat unit) |
| -7.00 | *CC(=O)NCCCCCCNC(=O)CS* (repeat unit) |
| 249.50 ± 18 | *c1ccc(Oc2ccc(C(c3ccc(Oc4ccc(N5C(=O)c6ccc(-c7ccc8c(c7)C(=O)N(*)C8=O)cc6C5=O)cc4)cc3)(C(F)(F)F)C(F)(F)F)cc2)cc1 (repeat unit) |
| 244.00 | *c1ccc(-c2ccc(-n3c(-c4ccc(Oc5ccc(C(=O)c6cccc(C(=O)c7ccc(Oc8ccc(-c9nc%10ccccc%10n9*)cc8)cc7)c6)cc5)cc4)nc4ccccc43)cc2)cc1 (repeat unit) |

| glass transition temperature [°C] | Compound |
| --- | --- |
| 167.00 | *c1ccc(Oc2ccc(S(=O)(=O)c3ccc(Oc4ccc(-c5c6c(c(*)c7ccccc57)C(=O)N(CCCCCCCCCCCC)C6=O)cc4)cc3)cc2)cc1 (repeat unit) |
| 199.50 | *Nc1ccc(NC(=O)c2ccc(NC(=O)CCCCCCCCCCC(=O)Nc3ccc(C(*)=O)cc3)cc2)cc1C(=O)OCCCCCCCCCCCCCCCC (repeat unit) |
| 172.00 | *Oc1ccc(S(=O)(=O)c2ccc(Oc3ccc(C(c4ccc(*)cc4)(C(F)(F)F)C(F)(F)F)cc3)cc2[Si](C)(C)C)c([Si](C)(C)C)c1 (repeat unit) |
| 125.00 | *CC(*)(CC(=O)OCC(C)C)C(=O)OCC(C)C (repeat unit) |
| 27.00 | *Oc1ccc(CC(NC(=O)CCc2ccc(OC(=O)COCC(*)=O)cc2)C(=O)OCCOCCOCC)cc1 (repeat unit) |
| 11.50 | */C=C/C(C)C(*)C(=O)OCCCN(C)c1ccc(N(C)C)cc1 (repeat unit) |
| 86.00 | *c1ccc(C(=O)OCCCCCCCCOC(=O)c2ccc(-c3nnc(*)s3)cc2)cc1 (repeat unit) |
| 40.00 | *CCCCCOC(=O)c1ccc(-c2ccc(-c3ccc(C(=O)O*)cc3)cc2)cc1 (repeat unit) |
| 280.00 | *c1ccc(Oc2ccc(-c3cnc4ccc(-c5ccc6nc(*)cnc6c5)cc4n3)cc2)cc1 (repeat unit) |
| 273.50 | *c1ccc(Oc2ccc(C(=O)c3ccc(Oc4ccc(-c5c6c(c(*)c7ccccc57)C(=O)N(c5ccccc5)C6=O)cc4)cc3)cc2)cc1 (repeat unit) |
| 286.00 | *c1ccc(Oc2cccc(N3C(=O)c4ccc(-c5cccc6c5C(=O)N(*)C6=O)cc4C3=O)c2)cc1 (repeat unit) |
| -40.00 | *CC(*)(C)C(=O)OCCCCCCCC/C=C/CCCCCCCC (repeat unit) |
| 183.00 | *CC(*)(C)C(=O)OC12CC3CC(CC(C3)C1)C2 (repeat unit) |
| 125.00 | *c1ccc(NC(=O)c2ccc(OCCOCCOCCOCCOCCOc3ccc(C(=O)Nc4ccc5[nH]c(*)nc5c4)cc3)cc2)cc1 (repeat unit) |
| 105.00 | *C(=O)OCCCCCCCCOC(=O)c1ccc(NC(=O)c2ccc(N3C(=O)c4ccc(*)cc4C3=O)cc2)cc1 (repeat unit) |
| 181.00 | *Oc1ccc(C(c2ccc(Oc3ccc(C(=O)c4cc(C(=O)c5ccc(*)cc5)cc(C(C)(C)C)c4)cc3)cc2)(C(F)(F)F)C(F)(F)F)cc1 (repeat unit) |
| 252.00 | *Oc1ccc(C(C)(C)c2ccc(Oc3ccc(C(=O)c4c(C(=O)c5ccc(*)cc5)c(-c5ccc(F)cc5)c(-c5ccc(F)cc5)c(-c5ccc(F)cc5)c4-c4ccc(F)cc4)cc3)cc2)cc1 (repeat unit) |
| 286.00 ± 34 | *c1ccc(S(=O)(=O)c2ccc(N3C(=O)c4ccc(Oc5ccc6c(c5)C(=O)N(*)C6=O)cc4C3=O)cc2)cc1 (repeat unit) |

| Compound | glass transition temperature [°C] |
| --- | --- |
| *OP(=O)(Oc1ccccc1)Oc1c(Br)cc(C(c2cc(Br)c(*)c(Br)c2)(C(F)(F)F)C(F)(F)F)cc1Br (repeat unit) | 140.00 |
| *c1cccc(P(=O)(c2ccc(C(F)(F)F)cc2)c2cccc(-n3c(=O)c4cc5c(=O)n(*)c(=O)c5c(-c5ccccc5)c4c3=O)c2)c1 (repeat unit) | 311.00 |
| *CC1(*)OCC(c2ccccc2)O1 (repeat unit) | 75.00 |
| *CC(CC)(CCl)CO* (repeat unit) | 20.00 |
| *C1OC(C(F)(F)F)(C(F)(F)F)OC1(*)F (repeat unit) | 256.00 |
| *CC(*)n1cc2ccccc2n1 (repeat unit) | 41.50 |
| *CC(*)C(=O)OC1CC(C)CC(C)(C)C1 (repeat unit) | 15.00 |
| *CC(*)c1ccc(CCC)cc1 (repeat unit) | 46.8 |
| *CC(*)(C)C(=O)OCSC (repeat unit) | 60.00 |
| *CC(*)c1cc(C(C)(C)C)ccc1C (repeat unit) | 87.00 |
| *OP(=O)(Oc1ccccc1)Oc1ccc(S(=O)(=O)c2ccc(*)cc2)cc1 (repeat unit) | 100.50 |
| *CCCCCCOP(=O)(/N=N/c1ccc(Oc2ccc(/N=N/P(=O)(O*)OC)cc2)cc1)OC (repeat unit) | 25.00 |
| *Cc1cccc(C[n+]2ccc(-c3cc[n+](*)cc3)cc2)c1 (repeat unit) | 128.00 |
